# US11286258B2, “Nature-inspired anticancer and antibacterial motifs and pharmaceutical composition thereof” (University of Sharjah, priority 2020, dated 2022)
# System: HCT-116
# Assay: MTT cell viability, HCT-116
# Assay type: cell-based
# Settings: Homo sapiens, colon cancer, 48 h of drug treatment, average of three experiments
# From the text: (§1) Cell culture: In this study five different cancer cell lines were used, human lung carcinoma (A549), human breast adenoma (MCF-7), Cervical carcinoma (Hela), hepatocellular carcinoma (Hep3B), and colorectal adenocarcinoma (HCT-116). These cells were obtained from the European Collection of Cell Cultures (ECACC, UK). Hep3B cells were maintained in Dulbecco's Modified Eagle Medium (DMEM: Sigma-Aldrich), and the four other cell lines were maintained in Roswell Park Memorial Institute medium (RPMI, Sigma-Aldrich, St. Louis, Mo., USA), which was supplemented with 10% fetal bovine serum (FBS, Sigma-Aldrich) and 1% penicillin/streptomycin (Sigma-Aldrich). Cells were incubated all the time at 37° C. in a humidified atmosphere of 5% CO2. Cell viability studies: Cell viability was assessed using the MTT assay as described before. In brief, all cancer cell lines were seeded at a density of 4×10^4/well in 96 well flat-bottom plates. After 24 h from seeding, cells were treated with the synthesized compounds and left for an incubation period of 48 h. Upon reaching the indicated time point, the media was removed and replaced with 200 μL fresh media containing 0.5 mg/mL of MTT tetrazolium dye (Sigma-Aldrich). Cells were then incubated with MTT solution for 2 h at 37° C. The resultant formazan crystals were dissolved in 200 μl/well of DMSO and absorbance was measured at 570 nm using a microplate reader (Thermo Scientific).
row,IC50,Structure (SMILES)
1,1780 ± 700 nM,Cc1ccc2c(c1)c1c3n2[C@@]2(C=C/C(=N\Nc4ccc(C(F)(F)F)cc4)CC2)CC[C@@H]3NCC1 [Compound 1h]
2,487 ± 30 nM,FC(F)(F)c1ccc(N/N=C2\C=C[C@@]3(CC2)CC[C@@H]2NCCc4c2n3c2ccccc42)cc1 (racemic) [Compound 1e]

# System: HELA
# Assay: MTT cell viability, HELA
# Assay type: cell-based
# Settings: Homo sapiens, cervical cancer, 48 h of drug treatment, average of three experiments
# From the text: as §1
row,IC50,Structure (SMILES)
1,3500 ± 60 nM,Cc1ccc2c(c1)c1c3n2[C@@]2(C=C/C(=N\Nc4ccc(C(F)(F)F)cc4)CC2)CC[C@@H]3NCC1 [Compound 1h]
2,2560 ± 580 nM,FC(F)(F)c1ccc(N/N=C2\C=C[C@@]3(CC2)CC[C@@H]2NCCc4c2n3c2ccccc42)cc1 (racemic) [Compound 1e]

# System: A549
# Assay: MTT cell viability, A549
# Assay type: cell-based
# Settings: Homo sapiens, lung cancer, 48 h of drug treatment, average of three experiments
# From the text: as §1
row,IC50,Structure (SMILES)
1,4897 ± 30 nM,Cc1ccc2c(c1)c1c3n2[C@@]2(C=C/C(=N\Nc4ccc(C(F)(F)F)cc4)CC2)CC[C@@H]3NCC1 [Compound 1h]
2,4011 ± 20 nM,FC(F)(F)c1ccc(N/N=C2\C=C[C@@]3(CC2)CC[C@@H]2NCCc4c2n3c2ccccc42)cc1 (racemic) [Compound 1e]

# System: HEP3B
# Assay: MTT cell viability, HEP3B
# Assay type: cell-based
# Settings: Homo sapiens, liver cancer, 48 h of drug treatment, average of three experiments
# From the text: as §1
row,IC50,Structure (SMILES)
1,2560 ± 70 nM,Cc1ccc2c(c1)c1c3n2[C@@]2(C=C/C(=N\Nc4ccc(C(F)(F)F)cc4)CC2)CC[C@@H]3NCC1 [Compound 1h]
2,2030 ± 80 nM,FC(F)(F)c1ccc(N/N=C2\C=C[C@@]3(CC2)CC[C@@H]2NCCc4c2n3c2ccccc42)cc1 (racemic) [Compound 1e]

# System: MCF-7
# Assay: MTT cell viability, MCF-7
# Assay type: cell-based
# Settings: Homo sapiens, MCF7; breast cancer; 48 h of drug treatment; average of three experiments
# From the text: as §1
row,IC50,Structure (SMILES)
1,3720 ± 50 nM,Cc1ccc2c(c1)c1c3n2[C@@]2(C=C/C(=N\Nc4ccc(C(F)(F)F)cc4)CC2)CC[C@@H]3NCC1 [Compound 1h]
2,1860 ± 30 nM,FC(F)(F)c1ccc(N/N=C2\C=C[C@@]3(CC2)CC[C@@H]2NCCc4c2n3c2ccccc42)cc1 (racemic) [Compound 1e]

# System: MRSA-1 (clinical isolate)
# Assay: MIC broth microdilution, MRSA-1
# Assay type: cell-based, Staphylococcus aureus
# Settings: Staphylococcus aureus, MRSA; overnight incubation, Mueller-Hinton broth; read-out: MIC MRSA-1 (clinical isolate)
# Procedure: (§2) Antibacterial activity: The compounds were tested for the minimum inhibitory concentrations (MIC), which is the lowest concentration of a chemical required to inhibit visible microbial growth following overnight incubation. MIC values were determined using broth microdilution method according to the Clinical and Laboratory Standards Institute guidelines (CLSI, 2015, M07-A10). Mueller-Hinton broth was used as a culture medium in all the experiments. Exponentially growing bacterial cells were prepared in Mueller-Hinton broth at a concentration of approximately 5×10^5 CFU/mL. Two-fold serial dilutions of the test compound (8 concentrations ranged between 100-0.78 μg/mL) were tested. […] In each experiment, solvent (DMSO) was used as a negative control, un-treated control (composing of bacteria in Mueller-Hinton broth) was used as a growth control, blank (culture media alone) was used as sterility control. The 96-well microplate with the test compounds was incubated overnight at 37° C. Turbidity in wells indicated bacterial growth.
# (§3) The compounds were tested on six MDR Gram-positive bacteria including three clinical isolates of methicillin-resistant Staphylococcus aureus (MRSA-1, MRSA-2 and MRSA-3) and three reference MRSA strains (ATCC33591, ATCC33592 and ATCC700699). They were also tested on three MDR Gram-negative bacteria including New Delhi metallo-beta-lactamase (NDM-1) positive, carbapenem-resistant E. coli (ATCC BAA2469), extended-spectrum beta-lactamase (ESBL) producing, colistin-resistant E. coli (CDC-AR-0346) and carbapenem-resistant Acinetobacter baumannii (ATCC BAA1605), in addition to two non-MDR bacteria from the same species, namely E. coli (ATCC 25922) Acinetobacter baumannii (ATCC 19606).
row,MIC,Structure (SMILES)
1,1.56 µg/mL,Cc1ccc2c(c1)c1c3n2[C@@]2(C=C/C(=N\Nc4ccc(C(F)(F)F)cc4)CC2)CC[C@@H]3NCC1 [Compound 1h]
2,1.56 µg/mL,FC(F)(F)c1ccc(N/N=C2\C=C[C@@]3(CC2)CC[C@@H]2NCCc4c2n3c2ccccc42)cc1 (racemic) [Compound 1e]

# System: MRSA-2 (clinical isolate)
# Assay: MIC broth microdilution, MRSA-2
# Assay type: cell-based, Staphylococcus aureus
# Settings: Staphylococcus aureus, MRSA; overnight incubation, Mueller-Hinton broth; read-out: MIC MRSA-2 (clinical isolate)
# Procedure: as §2, §3
row,MIC,Structure (SMILES)
1,1.56 µg/mL,Cc1ccc2c(c1)c1c3n2[C@@]2(C=C/C(=N\Nc4ccc(C(F)(F)F)cc4)CC2)CC[C@@H]3NCC1 [Compound 1h]
2,1.56 µg/mL,FC(F)(F)c1ccc(N/N=C2\C=C[C@@]3(CC2)CC[C@@H]2NCCc4c2n3c2ccccc42)cc1 (racemic) [Compound 1e]

# System: MRSA-3 (clinical isolate)
# Assay: MIC broth microdilution, MRSA-3
# Assay type: cell-based, Staphylococcus aureus
# Settings: Staphylococcus aureus, MRSA; overnight incubation, Mueller-Hinton broth; read-out: MIC MRSA-3 (clinical isolate)
# Procedure: as §2, §3
row,MIC,Structure (SMILES)
1,1.56 µg/mL,Cc1ccc2c(c1)c1c3n2[C@@]2(C=C/C(=N\Nc4ccc(C(F)(F)F)cc4)CC2)CC[C@@H]3NCC1 [Compound 1h]
2,1.56 µg/mL,FC(F)(F)c1ccc(N/N=C2\C=C[C@@]3(CC2)CC[C@@H]2NCCc4c2n3c2ccccc42)cc1 (racemic) [Compound 1e]

# System: MRSA-ATCC33591
# Assay: MIC broth microdilution, MRSA ATCC33591
# Assay type: cell-based, Staphylococcus aureus
# Settings: Staphylococcus aureus; overnight incubation, Mueller-Hinton broth; read-out: MIC MRSA-ATCC33591
# Procedure: as §2, §3
row,MIC,Structure (SMILES)
1,1.56 µg/mL,Cc1ccc2c(c1)c1c3n2[C@@]2(C=C/C(=N\Nc4ccc(C(F)(F)F)cc4)CC2)CC[C@@H]3NCC1 [Compound 1h]
2,3.12 µg/mL,FC(F)(F)c1ccc(N/N=C2\C=C[C@@]3(CC2)CC[C@@H]2NCCc4c2n3c2ccccc42)cc1 (racemic) [Compound 1e]

# System: MRSA-ATCC33592
# Assay: MIC broth microdilution, MRSA ATCC33592
# Assay type: cell-based, Staphylococcus aureus
# Settings: Staphylococcus aureus; overnight incubation, Mueller-Hinton broth; read-out: MIC MRSA-ATCC33592
# Procedure: as §2, §3
row,MIC,Structure (SMILES)
1,1.56 µg/mL,Cc1ccc2c(c1)c1c3n2[C@@]2(C=C/C(=N\Nc4ccc(C(F)(F)F)cc4)CC2)CC[C@@H]3NCC1 [Compound 1h]
2,3.12 µg/mL,FC(F)(F)c1ccc(N/N=C2\C=C[C@@]3(CC2)CC[C@@H]2NCCc4c2n3c2ccccc42)cc1 (racemic) [Compound 1e]

# System: MRSA-ATCC700699 (VISA)
# Assay: MIC broth microdilution, MRSA ATCC700699 (VISA)
# Assay type: cell-based, Staphylococcus aureus
# Settings: Staphylococcus aureus; strain intermediately resistant to vancomycin; overnight incubation; read-out: MIC MRSA-ATCC700699 (VISA)
# Procedure: as §2, §3
row,MIC,Structure (SMILES)
1,1.56 µg/mL,Cc1ccc2c(c1)c1c3n2[C@@]2(C=C/C(=N\Nc4ccc(C(F)(F)F)cc4)CC2)CC[C@@H]3NCC1 [Compound 1h]
2,3.12 µg/mL,FC(F)(F)c1ccc(N/N=C2\C=C[C@@]3(CC2)CC[C@@H]2NCCc4c2n3c2ccccc42)cc1 (racemic) [Compound 1e]

# Same assay, conditions: VISA strain ATCC 700699; vancomycin 8 μg/mL
row,MIC times less than the MIC of vancomycin,Structure (SMILES)
1,~5 times,Cc1ccc2c(c1)c1c3n2[C@@]2(C=C/C(=N\Nc4ccc(C(F)(F)F)cc4)CC2)CC[C@@H]3NCC1 [Compound 1h]

# System: E. coli ATCC25922
# Assay: MIC broth microdilution, E. coli ATCC25922
# Assay type: cell-based, Escherichia coli
# Settings: Escherichia coli, ATCC25922; not MDR; overnight incubation
# Procedure: as §2, §3
row,MIC,Structure (SMILES)
1,12.5 µg/mL,Cc1ccc2c(c1)c1c3n2[C@@]2(C=C/C(=N\Nc4ccc(C(F)(F)F)cc4)CC2)CC[C@@H]3NCC1 [Compound 1h]
2,6.25 µg/mL,FC(F)(F)c1ccc(N/N=C2\C=C[C@@]3(CC2)CC[C@@H]2NCCc4c2n3c2ccccc42)cc1 (racemic) [Compound 1e]

# System: E. coli ATCC BAA2469 (NDM-1 carbapenem-resistant)
# Assay: MIC broth microdilution, E. coli ATCC BAA2469
# Assay type: cell-based, Escherichia coli
# Settings: Escherichia coli, ATCCBAA2469, MDR; overnight incubation
# Procedure: as §2, §3
row,MIC,Structure (SMILES)
1,6.25 to 12.5 µg/mL,Cc1ccc2c(c1)c1c3n2[C@@]2(C=C/C(=N\Nc4ccc(C(F)(F)F)cc4)CC2)CC[C@@H]3NCC1 [Compound 1h]
2,6.25 to 12.5 µg/mL,FC(F)(F)c1ccc(N/N=C2\C=C[C@@]3(CC2)CC[C@@H]2NCCc4c2n3c2ccccc42)cc1 (racemic) [Compound 1e]

# Same assay, conditions: MDR; overnight incubation
row,MIC E. coli ATCC BAA2469 (NDM-1 carbapenem-resistant),Structure (SMILES)
1,12.5 µg/mL,Cc1ccc2c(c1)c1c3n2[C@@]2(C=C/C(=N\Nc4ccc(C(F)(F)F)cc4)CC2)CC[C@@H]3NCC1 [Compound 1h]
2,12.5 µg/mL,FC(F)(F)c1ccc(N/N=C2\C=C[C@@]3(CC2)CC[C@@H]2NCCc4c2n3c2ccccc42)cc1 (racemic) [Compound 1e]

# System: E. coli CDC-AR-0346 (ESBL, colistin resistant)
# Assay: MIC broth microdilution, E. coli CDC-AR-0346
# Assay type: cell-based, Escherichia coli
# Settings: E. coli CDC-AR-0346; colistin 6.25 μg/mL
# Procedure: as §2, §3
row,MIC fold higher than that of colistin,Structure (SMILES)
1,2 fold,Cc1ccc2c(c1)c1c3n2[C@@]2(C=C/C(=N\Nc4ccc(C(F)(F)F)cc4)CC2)CC[C@@H]3NCC1 [Compound 1h]
2,2 fold,FC(F)(F)c1ccc(N/N=C2\C=C[C@@]3(CC2)CC[C@@H]2NCCc4c2n3c2ccccc42)cc1 (racemic) [Compound 1e]

# Same assay, conditions: Escherichia coli; MDR; overnight incubation
row,MIC,Structure (SMILES)
1,12.5 µg/mL,Cc1ccc2c(c1)c1c3n2[C@@]2(C=C/C(=N\Nc4ccc(C(F)(F)F)cc4)CC2)CC[C@@H]3NCC1 [Compound 1h]
2,12.5 µg/mL,FC(F)(F)c1ccc(N/N=C2\C=C[C@@]3(CC2)CC[C@@H]2NCCc4c2n3c2ccccc42)cc1 (racemic) [Compound 1e]

# System: Acinetobacter baumannii ATCC 19606
# Assay: MIC broth microdilution, A. baumannii ATCC 19606
# Assay type: cell-based
# Settings: Acinetobacter baumannii, ATCC19606; not MDR; overnight incubation
# Procedure: as §2, §3
row,MIC,Structure (SMILES)
1,6.25 µg/mL,Cc1ccc2c(c1)c1c3n2[C@@]2(C=C/C(=N\Nc4ccc(C(F)(F)F)cc4)CC2)CC[C@@H]3NCC1 [Compound 1h]
2,6.25 µg/mL,FC(F)(F)c1ccc(N/N=C2\C=C[C@@]3(CC2)CC[C@@H]2NCCc4c2n3c2ccccc42)cc1 (racemic) [Compound 1e]

# System: Acinetobacter baumannii ATCC BAA1605 (carbapenem-resistant)
# Assay: MIC broth microdilution, A. baumannii ATCC BAA1605
# Assay type: cell-based
# Settings: Acinetobacter baumannii, ATCCBAA1605, MDR; overnight incubation
# Procedure: as §2, §3
row,MIC,Structure (SMILES)
1,25 µg/mL,Cc1ccc2c(c1)c1c3n2[C@@]2(C=C/C(=N\Nc4ccc(C(F)(F)F)cc4)CC2)CC[C@@H]3NCC1 [Compound 1h]
2,12.5 µg/mL,FC(F)(F)c1ccc(N/N=C2\C=C[C@@]3(CC2)CC[C@@H]2NCCc4c2n3c2ccccc42)cc1 (racemic) [Compound 1e]
